This note sets out measurements from patent US20220073448A1, “METHOD FOR SYNTHESIZING CARBOXY-CONTAINING ANTHRAQUINONE DERIVATIVE, CARBOXY-CONTAINING ANTHRAQUINONE DERIVATIVE PREPARED THEREBY, AND BATTERY SYSTEM COMPRISING SAME” (CHINA SALT JINTAN CO., LTD., priority 2019, published 2022).

The nature of this data set: Cyclic voltammetry (CV), three-electrode system, glassy carbon working electrode, Ag/AgCl reference electrode. The class given is physicochemical. The settings on record: 2 mM in potassium hydroxide aqueous solution at pH=14, scan rate 20 mV/s, in V. From the text:
In the cyclic voltammetry test of the electric pair, the CS Series electrochemical workstation from Wuhan Corrtest Instruments Corp., Ltd. was used to test the electrochemical performance of the organic electric pair with a three-electrode system. The working electrode was a glassy carbon electrode (Tianjin IDA Hengsheng Co.), the reference electrode was a Ag/AgCl electrode, the counter electrode was a platinum electrode, the scan range of the electric pair of positive electrode and negative electrode was −1.0 to 1.0 V, and the scan rate was 20 mV·s^−1.
A 1-[N-(5-carboxybutylacyl)]aminoanthraquinone solution (at a concentration of 2 mM, in a potassium hydroxide aqueous solution at pH=14) was investigated by cyclic voltammetry (CV).
A 1-[N-(6-carboxypentylacyl)]aminoanthraquinone solution (at a concentration of 2 mM, in a potassium hydroxide aqueous solution at pH=14) was investigated by cyclic voltammetry (CV).
A 1-[N-(7-carboxyhexylacyl)]aminoanthraquinone solution (at a concentration of 2 mM, in a potassium hydroxide aqueous solution at pH=14) was investigated by cyclic voltammetry (CV).
A 1-[N-(8-carboxyheptylacyl)]aminoanthraquinone solution (at a concentration of 2 mM, in a potassium hydroxide aqueous solution at pH=14) was investigated by cyclic voltammetry (CV).

Regarding `O=C(O)CCCCCCCC(=O)Nc1cccc2c1C(=O)c1ccccc1C2=O` [1-[N-(8-carboxyheptylacyl)]aminoanthraquinone], the “redox peak in CV curve” value is recorded as roughly −0.60 and the “redox peak in CV curve (more negative)” value is roughly −0.68.
Regarding “1-[N-(7-carboxyhexylacyl)]aminoanthraquinone”, the “redox peak in CV curve” value is on record as roughly −0.60 and the “redox peak in CV curve (more negative)” value is on record as roughly −0.67.
On to `O=C(O)CCCCC(=O)Nc1cccc2c1C(=O)c1ccccc1C2=O` [1-[N-(5-carboxybutylacyl)]aminoanthraquinone], for which the “redox peak in CV curve” value is reported as roughly −0.60 and the “redox peak in CV curve (more negative)” value was roughly −0.65.
Turning to `O=C(O)CCCCC(=O)Nc1cccc2c1C(=O)c1ccccc1C2=O` [1-[N-(6-carboxypentylacyl)]aminoanthraquinone], the “redox peak in CV curve” value is given as roughly −0.60 and the “redox peak in CV curve (more negative)” value is roughly −0.66.
